Data from publication PMC9516332 (Frontiers in Oncology, 2022).
Like-named read-outs stand apart in the source and are kept apart here.

Test system: 134 cancer cell lines
Assay: Cell viability assay (ATPlite, 72 hours), IC50 on cancer cell line panel

CNC(=O)c1ccc(-c2cnc3ncc(Cc4ccc5ncccc5c4)n3n2)cc1F [capmatinib]
IC50 (Homo sapiens, LS174T, read-out: IC50 in cell proliferation assay): > 31.6 µM | IC50 (Homo sapiens, LS-411N, read-out: IC50 in cell proliferation assay): > 31.6 µM | IC50 (Homo sapiens, LoVo, read-out: IC50 in cell proliferation assay): 0.00186 µM | IC50 (Homo sapiens, MCF7, read-out: IC50 in cell proliferation assay): > 31.6 µM | IC50 (Homo sapiens, MDA-MB-231, read-out: IC50 in cell proliferation assay): > 31.6 µM | IC50 (Homo sapiens, MDA-MB-453, read-out: IC50 in cell proliferation assay): > 31.6 µM | IC50 (Homo sapiens, MDA-MB-468, read-out: IC50 in cell proliferation assay): 30.8 µM | IC50 (Homo sapiens, MG-63, read-out: IC50 in cell proliferation assay): > 31.6 µM | IC50 (Homo sapiens, MIA PaCa-2, read-out: IC50 in cell proliferation assay): > 31.6 µM | IC50 (Homo sapiens, MKN-45, read-out: IC50 in cell proliferation assay): 0.004 µM | IC50 (Homo sapiens, MOLM-13, read-out: IC50 in cell proliferation assay): 6.01 µM | IC50 (Homo sapiens, MOLT-4, read-out: IC50 in cell proliferation assay): > 31.6 µM | IC50 (Homo sapiens, MV4-11, read-out: IC50 in cell proliferation assay): 1.95 µM | IC50 (Homo sapiens, MeWo, read-out: IC50 in cell proliferation assay): > 31.6 µM | IC50 (Homo sapiens, NCCIT, read-out: IC50 in cell proliferation assay): > 31.6 µM | IC50 (Homo sapiens, NCI-H82, read-out: IC50 in cell proliferation assay): > 31.6 µM | IC50 (Homo sapiens, NCI-H460, read-out: IC50 in cell proliferation assay): > 31.6 µM | IC50 (Homo sapiens, NCI-H661, read-out: IC50 in cell proliferation assay): > 31.6 µM | IC50 (Homo sapiens, NCI-H716, read-out: IC50 in cell proliferation assay): > 31.6 µM | IC50 (Homo sapiens, NCI-H1650, read-out: IC50 in cell proliferation assay): 9.45 µM | IC50 (Homo sapiens, NCI-H1975, read-out: IC50 in cell proliferation assay): > 31.6 µM | IC50 (Homo sapiens, NCI-H2228, read-out: IC50 in cell proliferation assay): > 31.6 µM | IC50 (Homo sapiens, OVCAR-3, read-out: IC50 in cell proliferation assay): > 31.6 µM | IC50 (Homo sapiens, PFSK-1, read-out: IC50 in cell proliferation assay): > 31.6 µM | IC50 (Homo sapiens, RL95-2, read-out: IC50 in cell proliferation assay): > 31.6 µM | IC50 (Homo sapiens, RPMI-7951, read-out: IC50 in cell proliferation assay): > 31.6 µM | IC50 (Homo sapiens, RS4-11, read-out: IC50 in cell proliferation assay): > 31.6 µM | IC50 (Homo sapiens, Rec1, read-out: IC50 in cell proliferation assay): 3.02 µM | IC50 (Homo sapiens, SHP77, read-out: IC50 in cell proliferation assay): > 31.6 µM | IC50 (Homo sapiens, SK-BR-3, read-out: IC50 in cell proliferation assay): > 31.6 µM | IC50 (Homo sapiens, SK-N-AS, read-out: IC50 in cell proliferation assay): > 31.6 µM | IC50 (Homo sapiens, SK-N-FI, read-out: IC50 in cell proliferation assay): > 31.6 µM | IC50 (Homo sapiens, SK-N-MC, read-out: IC50 in cell proliferation assay): > 31.6 µM | IC50 (Homo sapiens, SK-N-SH, read-out: IC50 in cell proliferation assay): 9.7 µM | IC50 (Homo sapiens, SNU-5, read-out: IC50 in cell proliferation assay): 0.000951 µM | IC50 (Homo sapiens, SNU-16, read-out: IC50 in cell proliferation assay): > 31.6 µM | IC50 (Homo sapiens, SNU-C2B, read-out: IC50 in cell proliferation assay): > 31.6 µM | IC50 (Homo sapiens, SU-DHL-1, read-out: IC50 in cell proliferation assay): > 31.6 µM | IC50 (Homo sapiens, SU-DHL-6, read-out: IC50 in cell proliferation assay): > 31.6 µM | IC50 (Homo sapiens, SUP-T1, read-out: IC50 in cell proliferation assay): > 31.6 µM | IC50 (Homo sapiens, SW48, read-out: IC50 in cell proliferation assay): > 31.6 µM | IC50 (Homo sapiens, SW480, read-out: IC50 in cell proliferation assay): > 31.6 µM | IC50 (Homo sapiens, SW626, read-out: IC50 in cell proliferation assay): > 31.6 µM | IC50 (Homo sapiens, SW780, read-out: IC50 in cell proliferation assay): > 31.6 µM | IC50 (Homo sapiens, SW837, read-out: IC50 in cell proliferation assay): 7.23 µM | IC50 (Homo sapiens, SW872, read-out: IC50 in cell proliferation assay): > 31.6 µM | IC50 (Homo sapiens, SW900, read-out: IC50 in cell proliferation assay): > 31.6 µM | IC50 (Homo sapiens, SW948, read-out: IC50 in cell proliferation assay): > 31.6 µM | IC50 (Homo sapiens, SW982, read-out: IC50 in cell proliferation assay): > 31.6 µM | IC50 (Homo sapiens, SW-620, read-out: IC50 in cell proliferation assay): > 31.6 µM | IC50 (Homo sapiens, T98G, read-out: IC50 in cell proliferation assay): > 31.6 µM | IC50 (Homo sapiens, TCC-SUP, read-out: IC50 in cell proliferation assay): > 31.6 µM | IC50 (Homo sapiens, THP-1, read-out: IC50 in cell proliferation assay): > 31.6 µM | IC50 (Homo sapiens, U2OS, read-out: IC50 in cell proliferation assay): > 31.6 µM | IC50 (Homo sapiens, U-87 MG, read-out: IC50 in cell proliferation assay): 0.023 µM | IC50 (Homo sapiens, U-118-MG, read-out: IC50 in cell proliferation assay): > 31.6 µM | IC50 (Homo sapiens, UMUC3, read-out: IC50 in cell proliferation assay): > 31.6 µM | IC50 (Hs766T, read-out: IC50 in cell proliferation assay): > 31.6 µM | IC50 (L-82, read-out: IC50 in cell proliferation assay): > 31.6 µM | IC50 (Rh30, read-out: IC50 in cell proliferation assay): 7.37 µM
